Converted amounts (≈) assume the structure as drawn. “And” between values parts separate entries of the source, which are not always exact repeats. Equal values may be shown once. “Also recorded” adds a separate entry of the source. Read-outs that look alike come from different tables or passages of the source.

The text below walks through data of US20220332695A1, “UREA DERIVATIVES AS CB1 ALLOSTERIC MODULATORS” (RTI INTERNATIONAL, priority 2019, published 2022).

One series relates to MDCK-MDR1 cells. Briefly: Bidirectional MDCK-MDR1 permeability assay. In kind it is in vitro ADME. The settings on record: for Papp A to B / Papp B to A: MDCK-MDR1, 10 μM test article. As to the method:
(§1) Permeability Assessment. Bidirectional MDCK-MDR1 permeability assay was performed by Paraza Pharma Inc. (Montreal, Canada). MDCK-mdr1 cells at passage 5 were seeded onto permeable polycarbonate supports in 12-well Costar Transwell plates and allowed to grow and differentiate for 3 days. On day 3, culture medium (DMEM supplemented with 10% FBS) was removed from both sides of the transwell inserts and cells were rinsed with warm HBSS. After the rinse step, the chambers were filled with warm transport buffer (HBSS containing 10 mM HEPES, 0.25% BSA, pH 7.4) and the plates were incubated at 37° C. for 30 min prior to TEER (Trans Epithelial Electric Resistance) measurements.
(§2) The buffer in the donor chamber (apical side for A-to-B assay, basolateral side for B-to-A assay) was removed and replaced with the working solution (10 μM test article in transport buffer). The plates were then placed at 37° C. under light agitation. At designated time points (30, 60 and 90 min), an aliquot of transport buffer from the receiver chamber was removed and replenished with fresh transport buffer. Samples were quenched with ice-cold ACN containing internal standard and then centrifuged to pellet protein. Resulting supernatants are further diluted with 50/50 ACN/H2O (H2O only for Atenolol) and submitted for LC-MS/MS analysis. Reported apparent permeability (Papp) values were calculated from single determination.
(§3) Atenolol and propranolol were tested as low and […] permeability references.
(§4) The apparent permeability (Papp, measured in cm/s) of a compound is determined according to the following formula […]: […]
(§5) where dQ/dt is the net rate of appearance in the receiver compartment; A is the area of the Transwell measured in cm^2 (1.12 cm^2); Ci is the initial concentration of compound added to the donor chamber; and 60 is the conversion factor for minute to second.

Another series concerns the target T1, mouse CB1R (Mus musculus, UniProt P47746).
T1 construct: membranes (10 μg protein) from either ICR mouse cerebellum mice; from tissue; host or cells: cerebellum membranes of ICR mice
Briefly: [35S]GTPγS binding assay in mouse cerebellum membranes. In kind it is biochemical. (GTPγS is a poorly hydrolysed GTP analogue; its binding reports G protein activation.)

Series [1] in a line: Metabolic stability in rat liver microsomes. In kind it is in vitro ADME. The settings on record: for half-life / Clearance: mean ± SD. The protocol:
Metabolic stability assessment: Compounds were incubated with rat liver microsomes at 37° C. for a total of 45 minutes. The reaction was performed at pH 7.4 in 100 mM potassium phosphate buffer containing 0.5 mg/mL of rat liver microsomal protein. Phase I metabolism was assessed by adding NADPH to a final concentration of 1 mM and collecting samples at time points 0, 5, 15, 30 and 45 minutes. All collected samples were quenched 1:1 with ice-cold stop solution (1 μM labetalol and 1 μM glyburide in acetonitrile) and centrifuged to remove precipitated protein. Resulting supernatants were further diluted 1:4 with acetonitrile:water (1:1). Samples were analyzed by LC/MS/MS and calculations for half-life, and in-vitro clearance were accomplished using Microsoft Excel (2007).
For orientation: Microsomes from liver hold many membrane-bound enzymes, among them those of drug oxidation.

A short description of series [2]: Kinetic solubility assessment. In kind it is physicochemical. The settings on record: phosphate buffer, 2 hours room temperature. The protocol:
The solution was agitated on a VX-2500 multi-tube vortexer (VWR International, Radnor, Pa., United States of America) for 2 hours at room temperature. Following agitation, the sample was filtrated on a glass-fiber filter (1 μm) and the eluate was diluted 400-fold with a mixture of acetonitrile: water (1:1). On each experimental occasion, nicardipine and imipramine were assessed as reference compounds for low and high solubility, respectively. All samples were assessed in triplicate and analyzed by LC-MS/MS using electrospray ionization against standards prepared in the same matrix.

The target in series [3] is T2, hCB1R (Homo sapiens, UniProt P21554). Briefly: Intrinsic activity: basal [35S]GTPγS binding in the absence of CP55,940. As to conditions: up to 10 μM. It counts as biochemical.
For series [4], the target named is T2, hCB1R. Briefly: Calcium mobilization assay, antagonist mode against CP55,940. It counts as cell-based. The arrangement: expressed in transfected cells; host or cells: CHO-RD-HGA16 cells (parental line from Molecular Devices). Background: Calcium flux is commonly read through the fluorescence of an indicator in the cells.
Description: Calcium Mobilization Assay: CHO-RD-HGA16 cells (Molecular Devices, San Jose, Calif., United States of America) stably expressing the human CB1 receptor were plated into 96-well black-walled assay plates at 25,000 cells/well in 100 pL of Ham's F12 (supplemented with 10% fetal bovine serum, 100 units of penicillin/streptomycin, and 100 µg/mL Normocin) and incubated overnight at 37° C., 5% CO2. Calcium 5 dye (Molecular Devices, San Jose, Calif., United States of America) was reconstituted according to the manufacturer's instructions. The reconstituted dye was diluted 1:40 in prewarmed (37° C.) assay buffer (1x HBSS, 20 mM HEPES, 2.5 mM probenecid, pH 7.4 at 37° C.). Growth medium was removed, and the cells were gently washed with 100 pL of prewarmed (37° C.) assay buffer. The cells were incubated for 45 min at 37° C., 5% CO2 in 200 pL of the diluted Calcium 5 dye solution. […] Serial dilutions of the test compounds were prepared at 10x the desired final concentration in 2.25% BSA/4.5% DMSO/4.5% EtOH/assay buffer. After the dye loading incubation period, the cells were pretreated with 25 pL of the test compound serial dilutions and incubated for 15 min at 37° C. After the pretreatment incubation period, the plate was read with a FLIPR Tetra (Molecular Devices, San Jose, Calif., United States of America). Calcium-mediated changes in fluorescence were monitored every 1 s over a 90 s time period, with the Tetra adding 25 pL of the CP55,940 EC80 concentration at the 10s time point (excitation/emission: 485/525 nm). Relative fluorescence units (RFU) were plotted against the log of compound concentrations. For agonist screens, the above procedure was followed except that cells were pretreated with 2.25% BSA/4.5% DMSO/4.5% EtOH/assay buffer and the Tetra added single concentration dilutions of the test compounds prepared at 10x the desired final concentration in 0.25% BSA/0.5% DMSO/0.5% EtOH/assay buffer. Test compound RFUs were compared to the CP55,940 Emax RFUs to generate % Emax values.
Data Analysis: For calcium mobilization experiments, data were fit to a three-parameter logistic curve to generate IC50 values (GraphPad Prism 6.0, Graphpad Software, San Diego, Calif., United States of America).
The test system of series [5] is locomotion in rats. The series is described as follows: Locomotion in rats. As to conditions: rat, 10 mg/kg i.p.
Excerpt: (§6) Locomotion is presented as total distance (in millimeters (mm)) versus time (in minutes) after administration. The effects of treatment with vehicle is also shown as a control.
The target in series [6] is T2, hCB1R. Briefly: Real-time BRET CAMYEL cAMP assay in HEK293 cells expressing human CB1. It counts as cell-based. The arrangement: expressed in transfected cells; host or cells: HEK293 cells stably transfected with human CB1, transiently transfected with pcDNA3L-His-CAMYEL sensor. The settings on record: [CP] = 100 nM; forskolin-stimulated cAMP.
Description: cAMP Assay: The cAMP assay was performed as previously described. […] Briefly, forskolin (FSK)-stimulated cyclic adenosine monophosphate (cAMP) production was measured in real-time using a transfected bioluminescence resonance energy transfer (BRET) cAMP sensor. The plasmid encodes a cAMP binding domain (Epac1) flanked by yellow fluorescent protein (YFP) and Renilla Luciferase (RLuc) assay, the latter of which can oxidize coelenterazine H and produce a photon as a byproduct. When cAMP is bound to the Epac1 domain, it separates RLuc and YFP so only Rluc emits a photon at a wavelength of 460 nm. When cAMP is not bound, RLuc can excite YFP, emitting light at wavelength 535 nm. A plate reader measures both wavelengths and their ratio, 460/535, is calculated to quantify cAMP levels where increases in the ratio indicate increases in cAMP. Human Embryonic Kidney 293 (HEK293) cells stably transfected with the human cannabinoid type-1 (C131) were maintained at 37° C. at 5% CO2 and seeded in 100 mM dishes for transfection. The next day, cells were given fresh growth media and transfected with 5 pg of pcDNA3L-His-CAMYEL using linear polyethyleneimine (25 kDa, Polysciences, Warrington, Pennsylvania, United States of America) in 1:6 DNA:PEI (ATCC, Manassas, Virginia, United States of America) ratio. The next day, cells were lifted using 1 mM EDTA in PBS and spun down at 200xg for 5 min. The supernatant was removed, and cells were resuspended in growth media and plated on poly-D-lysine (Sigma Aldrich, St. Louis, Missouri, United States of America) coated white 96 well plates at 60,000 cells per well, filling 2 columns of 8 wells each per plate, i.e. 8 samples in duplicate per plate (Perkin Elmer, Waltham, Massachusetts,
United States of America). The following day, media was removed, cells were rinsed with PBS and buffers/reagents/drugs added as following: At 0 min, 175 of stimulation buffer (5 mg/ml bovine serum albumin in HBSS including Ca^2+ and Mg^2+); at 10 min, 25 μL of allosteric modulators added; at 15 min: 25 μL coelenterazine added (5 μM final); at 25 min, 25 μL of forskolin (10 final) with or without CP55,940 (100 nM final) added. […] Ratio of 460/535 is calculated for each time point and plotted across time and area under the curve analysis is conducted for each replicate and averaged by condition/day where each day serves as an independent experiment. Data were calculated as %FSK using the formula [(sample-basal)/(forskolin-basal)×100]. IC50 values were calculated from these normalized concentration-response data using Prism 6 (Graphpad Software, San Diego, Calif., United States of America) using 3 parameter non-linear regression. Data are plotted as mean of at least N=3 independent experiments either normalized to forskolin (concentration response data) or the calculated 460/535 BRET ratio (time course data).
In series [7] the target is T2, hCB1R. Briefly: [35S]GTPγS binding assay in HEK cells stably expressing human CB1R. It counts as biochemical. The arrangement: expressed in transfected cells; host or cells: HEK (HEK293) cells, membranes. The settings on record: [CP] = 100 nM, mean (95% confidence interval), read-out: hCB1R [35S]GTPγS binding assay IC50.
Description: (§7) [^35S]GTPγS Binding Assay: For receptor signaling, membranes (10 μg protein) from either ICR mouse cerebellum mice (6-8 weeks old; Enviga
(§8) Non-specific binding was determined by adding 30 μM unlabeled GTPyS. Concentration response curves for allosteric modulators were conducted in the presence of CP55,940 (100 nM or 1 μM) to calculate 1050 values.
(§9) For [^35S]GTPyS experiments, data were normalized to maximal CP55,940 (100 nM) stimulation in the absence of test compound (i.e., vehicle=100%).
For another series, the system named is P-gp (MDR1). Briefly: Bidirectional MDCK-MDR1 permeability assay. As to conditions: dog, pH 7.4; MDCK-MDR1, 10 μM test article. In kind it is in vitro ADME. The protocol:
as §1, §2, §3, §4, §5

Series [8] relates to cocaine-seeking behavior in rats. The series is described as follows: Cocaine-induced reinstatement of extinguished cocaine-seeking behavior. It counts as in vivo, male Sprague-Dawley rats. The settings on record: rat, 10 mg/kg i.p. pretreatment. The protocol: In both graphs, the effect of treatment with vehicle (unfilled bars) is shown as a control. *p<0.05.
Adult male Sprague-Dawley rats (Harlan, Indianapolis, Ind., United States of America) weighing 280-300 g were used in the study. Animals were housed individually on a 12/12 hr light/dark cycle (behavioral experiments were conducted during the light period) with free access to water and food except during experimental sessions.
The reinstatement procedure has been previously described. See Jing et al., Drug Alcohol Depend. 2014, 143, 251-256; and Thorn et al., Neuropsychopharmacology 2014, 39, 2309-2316. Briefly, rats were surgically implanted with a chronic indwelling jugular catheter. […]
Data analyses: Data are expressed as mean ±S.E.M. Differences in active lever responding between the last extinction session and reinstatement session were determined with paired t tests (within subjects comparison). The effects of compounds 2 on reinstatement were analyzed by a one-way analysis of variance (ANOVA) followed by post hoc Bonferroni's test (between subjects comparison). The effects of compounds 34 on reinstatement was analyzed by Student's t test. […]

Series [9] concerns locomotion in rats. The settings on record: rat, in vivo, ip, 10 mg/kg.
Excerpt: as §6
[10] abbreviates: mouse cerebellum membrane, [CP] = 100 nM, read-out: mCB1R GTPγS IC50.
The mark [11] stands for this setting: mouse cerebellum membrane, [CP] = 1 uM, read-out: mCB1R GTPγS IC50.
Setting [12] is: aqueous buffer, kinetic from dmso stock.
Setting [13] is: CHO cells expressing human CB1R, against CP55,940 (100 nM), mean ± SEM, read-out: hCB1R Calcium assay IC50.

T1 sequence (P47746 whole entry): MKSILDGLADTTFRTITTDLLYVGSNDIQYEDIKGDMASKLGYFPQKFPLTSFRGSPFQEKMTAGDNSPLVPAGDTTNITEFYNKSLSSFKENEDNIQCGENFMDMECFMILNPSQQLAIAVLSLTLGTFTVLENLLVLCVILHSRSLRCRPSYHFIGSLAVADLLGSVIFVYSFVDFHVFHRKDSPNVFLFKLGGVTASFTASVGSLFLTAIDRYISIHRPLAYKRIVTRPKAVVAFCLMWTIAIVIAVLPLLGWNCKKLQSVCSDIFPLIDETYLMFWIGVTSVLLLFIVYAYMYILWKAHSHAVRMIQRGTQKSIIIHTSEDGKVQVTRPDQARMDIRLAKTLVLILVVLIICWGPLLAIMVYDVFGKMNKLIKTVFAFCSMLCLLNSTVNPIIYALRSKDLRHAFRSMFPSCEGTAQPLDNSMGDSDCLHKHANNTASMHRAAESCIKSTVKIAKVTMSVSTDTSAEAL
T2 sequence (P21554 whole entry): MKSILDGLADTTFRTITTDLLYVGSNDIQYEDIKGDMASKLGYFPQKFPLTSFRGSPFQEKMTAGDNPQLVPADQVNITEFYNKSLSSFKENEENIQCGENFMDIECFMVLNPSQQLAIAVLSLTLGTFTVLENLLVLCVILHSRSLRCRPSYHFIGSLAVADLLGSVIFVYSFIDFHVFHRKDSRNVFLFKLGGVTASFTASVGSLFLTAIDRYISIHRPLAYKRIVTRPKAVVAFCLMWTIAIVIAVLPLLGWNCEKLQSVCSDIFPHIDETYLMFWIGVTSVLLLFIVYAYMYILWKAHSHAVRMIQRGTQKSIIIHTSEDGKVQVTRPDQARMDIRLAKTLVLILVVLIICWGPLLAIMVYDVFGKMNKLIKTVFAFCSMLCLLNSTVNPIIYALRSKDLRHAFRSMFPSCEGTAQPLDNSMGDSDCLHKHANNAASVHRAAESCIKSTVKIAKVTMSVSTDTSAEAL
Description for mouse CB1R: as §7, §8, §9
Select compounds were evaluated in the CP55,940-induced [^35S]GTPyS binding assays using mouse cerebellum membrane at two CP55,940 concentrations, 100 nM and 1μM.

For `O=C(Nc1ccc(Cl)cc1)Nc1cccc(-c2cccc(N3CCCC3)n2)c1` [Compound 2, reference compound], the “Papp A to B” value in the series with MDCK-MDR1 cells is 2.6 ± 0 ×10^−6 cm/s. The “Papp B to A” value in the series on MDCK-MDR1 cells is given as 2.2 ± 0.1 ×10^−6 cm/s. In addition, the IC50 at mouse CB1R (setting [10]) is 244 nM; on mouse CB1R (setting [11]), 127 nM. Besides, the half-life in [1] (NADPH) is 13 min and 13.4 ± 4.1 min. For the same compound, the Clearance in series [1] was 113.7 ± 34.4 µL/min/mg. Further, the solubility at 2 h in series [2] (setting [12]) was < 0.5 µM.

Consider `O=C(Nc1ccc(Cl)cc1)Nc1ccc(-c2ccccc2)s1` [Compound 11, 1-(4-Chlorophenyl)-3-(5-phenylthiophen-2-yl)urea], for which, in the series with MDCK-MDR1 cells (MDCK-MDR1), the “Efflux BA/AB” value is reported as 0.7. In addition, in the series on MDCK-MDR1 cells, the “Papp A to B” value is 1.6 ± 0.1 ×10^−6 cm/s. Further, in the series with MDCK-MDR1 cells, the “Papp B to A” value is 1.1 ± 0.4 ×10^−6 cm/s. Besides, the “inverse agonism (in words)” value at hCB1R [3] is recorded as “some degree of inverse agonism; also recorded: very little inverse agonism”. Besides, the IC50 at hCB1R [4] (setting [13]) was 7 nM; on mouse CB1R (setting [10]) it was 63 nM; at hCB1R [6] it was 1760 nM; at hCB1R [7], 524 nM. Besides, in the series with locomotion in rats [5], the effect on locomotion result is recorded as “significant reduction of locomotion”. Besides, the Clearance in series [1] came to 22.2 ± 6.5 µL/min/mg. The solubility at 2 h in series [2] was found to be 1.5 µM (≈ 0.493 µg/mL).

In the case of `O=C(Nc1ccc(Cl)cc1)Nc1ncc(-c2ccccc2)s1` [Compound 14, 1-(4-Chlorophenyl)-3-(5-phenyl-1,3-thiazol-2-yl)urea], the “inverse agonism (in words)” value at hCB1R [3] is “some degree of inverse agonism”. In addition, the IC50 at hCB1R [4] (setting [13]) came out at 79 ± 10 nM; on hCB1R [7] it was 604 nM.

Turning to `O=C(Nc1ccc(Cl)cc1)Nc1ccc(-c2ccncc2)s1` [Compound 35, 1-(4-Chlorophenyl)-3-[5-(pyridin-4-yl)thiophen-2-yl]urea], the “inverse agonism (in words)” value at hCB1R [3] is “some degree of inverse agonism”. Further, the IC50 is 79 ± 13 nM on hCB1R [4] (setting [13]); 287 nM and 204 nM on mouse CB1R (setting [10]); 129 nM and 120 nM on mouse CB1R (setting [11]); 1800 nM at hCB1R [6]; 298 nM on hCB1R [7].

On to `O=C(NCCc1cccc(Cl)c1)Nc1ccc(Cl)cc1` [Compound 68, 3-(4-Chlorophenyl)1-[2-(3-chlorophenyl)ethyl]urea], for which the Papp A→B at 90 min, 10 µM in the series with P-gp (MDR1) is > 15 ×10⁻⁶ cm/s. In the series on P-gp (MDR1), the Papp B→A at 90 min, 10 µM was > 15 ×10⁻⁶ cm/s. Further, the IC50 was 30 ± 4 nM on hCB1R [4] and 561 nM on mouse CB1R (Tables 4-6, CP55,940 concentration not stated, mean (95% confidence interval), read-out: mCB1R [35S]GTPγS binding assay IC50). Also, the half-life in series [1] (pH 7.4, NADPH, read-out: Half-life) came out at 9.6 min. Also, the microsomal CLint in series [1] (pH 7.4, mean ± SD, read-out: Clearance) came out at 144 ± 8.4 µL/min/mg. For the same compound, the “effect on cocaine-induced reinstatement of cocaine-seeking behavior” value in series [8] is on record as “good in vivo efficacy; also recorded: attenuated cocaine-induced reinstatement of cocaine-seeking behavior”. Moreover, the effect on locomotion result in the series on locomotion in rats [9] is given as “did not affect locomotion”. Further, the solubility at 2 h in series [2] (setting [12]) is < 0.5 µM.

In general, IC50 refers to the concentration at which inhibition is half-maximal. As a reminder, the half-life is the time needed for the level to fall by half in the phase considered. In general, solubility refers to the dissolved amount per volume that the medium holds. What is called Papp A→B is how fast a substance crosses the layer from the apical side. Low readings indicate poor permeation, high ones ready permeation. Usually Papp B→A stands for how fast a substance crosses the layer from the basolateral side.
